Data reported in patent US5885987A, “Phenylene derivatives” (Kowa Co., Ltd., priority 1996, dated 1999).
pKd: −log10 of the molar value. Read-outs that look alike come from different tables or passages of the source.

Experiments:
LTD4 receptor = biological target: T1, LTD4 receptor (Cavia porcellus, UniProt Q2NNR5); assay: LTD4 receptor binding inhibition test ([^3 H]leukotriene D4, guinea pig pulmomembranous protein); conditions: for pKd: read-out: LTD4 receptor, dissociation constant KD; for inhibition at 100 µM: a: 100 μM; for inhibition at 100 µM / inhibition at 10 µM: read-out: LTD4 receptor (%), inhibition rate; for LTD4 receptor (%), inhibition rate: concentration not given; for inhibition at 10 µM: b: 10 μM
T1 construct: guinea pig pulmomembranous protein; from tissue; host or cells: guinea pig lung membranes
T1 sequence (Q2NNR5 1-340): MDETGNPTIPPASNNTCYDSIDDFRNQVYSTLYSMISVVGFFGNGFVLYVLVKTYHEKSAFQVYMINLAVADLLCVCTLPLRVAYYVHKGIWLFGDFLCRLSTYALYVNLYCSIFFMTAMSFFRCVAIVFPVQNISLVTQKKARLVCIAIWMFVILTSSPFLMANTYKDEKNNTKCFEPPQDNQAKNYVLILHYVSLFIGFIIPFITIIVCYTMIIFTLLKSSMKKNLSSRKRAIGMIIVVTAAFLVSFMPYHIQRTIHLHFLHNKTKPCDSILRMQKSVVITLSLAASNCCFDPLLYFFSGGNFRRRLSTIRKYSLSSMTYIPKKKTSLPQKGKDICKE
Method: 2) LTD4 Receptor Binding Inhibition Test
An ice-cooled tris hydrochloride/sodium chloride buffer (10 mM/100 mM, pH 7.5) was added to terminate the reaction, followed by immediate filtration through a Wattman CF/C filter. The filter was washed twice with 20 ml aliguots of the ice-cooled buffer. The radioactivity of the residue was measured by a liquid scintillation counter. […] In a binding assay, 2 μM leukotriene D4 was used for the measurement of a nonspecific binding.

H1 receptor = biological target: T2, H1 receptor (Cavia porcellus, UniProt P31389); assay: H1 receptor binding inhibition test ([^3 H]mepyramin, guinea pig cerebromembranous protein); conditions: for inhibition at 10 µM: b: 10 μM; for inhibition at 10 µM / inhibition at 100 µM: read-out: H1 receptor (%), inhibition rate; for inhibition at 100 µM: a: 100 μM; for pKd: read-out: H1 receptor, dissociation constant KD
T2 construct: guinea pig cerebromembranous protein; from tissue; host or cells: guinea pig cerebral (brain) membranes
T2 sequence (P31389 whole entry): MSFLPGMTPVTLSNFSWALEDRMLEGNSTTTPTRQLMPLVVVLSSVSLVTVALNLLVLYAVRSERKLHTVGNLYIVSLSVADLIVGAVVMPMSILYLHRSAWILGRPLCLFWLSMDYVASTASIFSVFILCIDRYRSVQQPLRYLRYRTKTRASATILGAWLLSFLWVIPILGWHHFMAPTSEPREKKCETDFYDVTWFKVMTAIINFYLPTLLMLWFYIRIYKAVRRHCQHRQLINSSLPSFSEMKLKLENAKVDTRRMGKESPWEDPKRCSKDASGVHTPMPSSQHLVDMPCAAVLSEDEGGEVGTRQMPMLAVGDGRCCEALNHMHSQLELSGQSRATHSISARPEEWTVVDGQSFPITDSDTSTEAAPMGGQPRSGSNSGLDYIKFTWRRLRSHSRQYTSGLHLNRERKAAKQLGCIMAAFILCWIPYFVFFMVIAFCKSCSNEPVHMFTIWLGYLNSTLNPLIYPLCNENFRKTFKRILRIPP
Method: 1) H1 Receptor Binding Inhibition Test
An ice-cooled phosphate buffer was added to terminate the reaction, followed by immediate filtration through a Wattman CF/C filter. The filter was washed twice with 20 ml aliquots of the ice-cooled buffer. The radioactivity of the residue was measured by a liquid scintillation counter. From a measurement value obtained without the addition of the test compound and measurements values obtained upon addition of the test compound at various concentrations, the dose-response of the inhibitory action of the test compound was measured and the 50% inhibitory concentration (IC50) was determined. Using the Cheng-Prusoff formula, a dissociation constant was calculated from the IC50. In a binding assay, 10^-4 M R(-)dimethindene was used for the measurement of a nonspecific binding.

O=C1CS(=O)(=O)c2cc(OCc3cccc(OCc4ccc5ccccc5n4)c3)ccc2N1 [Example 74, 7-[3-(2-quinolinylmethoxy)benzyloxy]-3,4-dihydro-2H-1,4-benzothiazin-3-one1,1-dioxide]
pKd (LTD4 receptor): 3.63

CN1C(=O)CSc2c(NCc3cccc(OCc4ccc5ccccc5n4)c3)cccc21 [Example 97, 4-methyl-8-[3-(2-quinolinylmethoxy)benzylamino]-3,4-dihydro-2H-1,4-benzothiazin-3-one]
pKd (LTD4 receptor): 6.17
inhibition at 10 µM (H1 receptor): 7%

O=C1CCc2ccc(OC(=O)c3ccc(OCc4ccc5ccccc5n4)cc3)cc2N1 [Example 65, 7-(4-(2-Quinolinylmethoxy]benzoyloxy]-1,2,3,4-tetrahydroquinolin-2-one]
inhibition at 100 µM (LTD4 receptor): 13%
inhibition at 100 µM (H1 receptor): 43%

Cc1ccc(OCc2cccc(OCc3ccc4ccccc4n3)c2)c2cc(-c3nn[nH]n3)c(=O)[nH]c12 [Example 47, 8-methyl-5-[3-(2-quinolinylmethoxy)benzyloxy]-3-(5-tetrazolyl)-1,2-dihydroquinolin-2-one]
pKd (LTD4 receptor): 6.47

O=C1CCc2cc(OC(=O)c3cccc(OCc4ccc5ccccc5n4)c3)ccc2N1 [Example 55, 6-[3-(2-Quinolinylmethoxy)benzoyloxy]-1,2,3,4-tetrahydroquinolin-2-one]
pKd (LTD4 receptor): 6.46
inhibition at 100 µM (H1 receptor): 43%

O=C1CS(=O)(=O)c2cc(OCc3cccc(OCc4ccc5ccc(Cl)cc5n4)c3)ccc2N1 [Example 75]
LTD4 receptor (%), inhibition rate (LTD4 receptor): 0%
inhibition at 100 µM (H1 receptor): 36%

CC1(C)C(=O)Nc2cc(OC(=O)c3cccc(OCc4ccc5ccccc5n4)c3)ccc21 [Example 60, 3,3-Dimethyl-6-[3-(2-quinolinylmethoxy)benzoyloxy]-2,3-dihydro-1H-indol-2-one]
pKd (LTD4 receptor): 6.65
inhibition at 100 µM (H1 receptor): 38%

O=C1CCc2ccc(OCc3cccc(OCc4ccc5ccc(Cl)cc5n4)c3)cc2N1 [Example 31, 7-[3-(7-chloro-2-quinolinylmethoxy)benzyloxy]-1,2,3,4-tetrahydroquinolin-2-one]
pKd (LTD4 receptor): 6.52
pKd (H1 receptor): 4.70

O=C1CSc2c(N=Cc3cccc(OCc4ccc5ccccc5n4)c3)cccc2N1 [Example 93, 8-[3-(2-quinolinylmethoxy)benzylidenamino]-3,4-dihydro-2H-1,4-benzothiazin-3-one]
pKd (LTD4 receptor): 5.82
inhibition at 10 µM (H1 receptor): 38%

Cn1c(COc2ccc(COc3ccc4c(c3)SCC(=O)N4)cc2)nc2ccccc21 [Example 38, 7-(4-(N-methylbenzimidazol-2-yl-methoxy)benzyloxy]-3,4-dihydro-2H-1,4-benzothiazin-3-one]
pKd (LTD4 receptor): 6.52
inhibition at 100 µM (H1 receptor): 47%

O=C1CCc2ccc(OCc3ccc(OCc4nc5ccccc5s4)cc3)cc2N1 [Example 42, 7-(4-(2-benzothiazolylmethoxy)benzyloxy]-1,2,3,4-tetrahydroquinolin-2-one]
inhibition at 10 µM (LTD4 receptor): 17%
pKd (H1 receptor): 4.08

7-[3-(2-quinolinylmethoxy)benzyloxy]-2,3,4,5-tetrahydro-tetrazolo-[5,1-a][2]benzazepin [Example 87]
pKd (LTD4 receptor; 0.2 nM [^3 H]leukotriene D4, pH 7.5, 22° C., 30 minutes, calculated from IC50): 7.94
pKd (H1 receptor; 0.5 nM [^3 H]mepyramin, pH 7.5, 37° C., 30 minutes, calculated from IC50 with Cheng-Prusoff formula): 4.17

O=C1CSc2cc(OCc3cccc(OCc4nc5ccccc5s4)c3)ccc2N1 [Example 40, 7-[3-(2-benzothiazolylmethoxy)benzyloxy)-3,4-dihydro-2H-1,4-benzothiazin-3-one]
pKd (LTD4 receptor): 5.86
inhibition at 100 µM (H1 receptor): 43%

CC1(C)C(=O)Nc2c(OC(=O)c3cccc(OCc4ccc5ccccc5n4)c3)cccc21 [Example 61, 3,3-Dimethyl-7-[3-(2-quinolinylmethoxy)benzoyloxyl]2,3-dihydro-1H-indol-2-one]
inhibition at 10 µM (LTD4 receptor): 27%
inhibition at 100 µM (H1 receptor): 28%

CC1(C)C(=O)Nc2cc(OCc3ccc(OCc4ccc5ccccc5n4)cc3)ccc21 [Example 28, 3,3-Dimethyl-6-[4-(2-quinolinylmethoxy)benzyloxy]-2,3-dihydro-1H-indol-2-one]
pKd (LTD4 receptor): 5.85
inhibition at 100 µM (H1 receptor): 30%

O=C1CSc2cc(NC(=O)c3cccc(OCc4ccc5ccccc5n4)c3)ccc2N1 [Example 72, 7-[3-(2-Quinolinylmethoxy)benzoylamino]-3,4-dihydro-2H-1,4-benzothiazin-3-one]
pKd (LTD4 receptor): 7.34

O=C(O)c1cc2cc(OCc3cccc(OCc4ccc5ccccc5n4)c3)ccc2[nH]c1=O [Example 50, 2-oxo-6-[3-(2-quinolinylmethoxy)benzyloxy]-1,2-dihydroquinoline-3-carboxylic acid]
pKd (LTD4 receptor): 5.97

Cc1ccc(OCc2cccc(OCc3ccc4ccccc4n3)c2)c2cc(C(=O)O)c(=O)[nH]c12 [Example 51, 8-methyl-2-oxo-5-[3-(2-quinolinylmethoxy)benzyloxy]-1,2-dihydroquinoline-3-carboxylic acid]
pKd (LTD4 receptor): 4.93

O=C1CSc2cc(OCc3cccc(/C=C/c4ccc5ccc(Cl)cc5n4)c3)ccc2N1 [Example 81, trans-7-[3-[2-(7-chloroquinolin-2-yl)ethenyl]benzyloxy]-2H-3,4-dihydro-1,4-benzothiazin-3-one]
pKd (LTD4 receptor): 7.89

Cc1ccc(OC(=O)c2ccc(OCc3ccc4ccccc4n3)cc2)c2cc(C#N)c(=O)[nH]c12 [Example 62, 3-Cyano-8-methyl-5-[4-(2-quinolinylmethoxy)benzoyloxy]-1,2-dihydroquinolin-2-one]
LTD4 receptor (%), inhibition rate (LTD4 receptor): 0%

Cc1ccc(OCc2cccc(OCc3ccc4ccccc4n3)c2)c2ccc(=O)[nH]c12 [Example 2, 8-Methyl-5-[3-(2-quinolinylmethoxy)benzyloxy]-1,2-dihydroquinolin-2-one]
pKd (LTD4 receptor): 5.81

O=C1CSc2cc(OC(=O)c3ccc(OCc4ccc5ccccc5n4)cc3)ccc2N1 [Example 66, 7-[4-(2-Quinolinylmethoxy)benzoyloxy]-3 4-dihydro-2H-1,4-benzothiazin-3-one]
inhibition at 10 µM (LTD4 receptor): 28%

Cc1ccc(OCc2cccc(OCc3ccc4ccccc4n3)c2)c2c1NC(=O)C2(C)C [Example 13, 4-[3-(2-Quinolinylmethoxy)benzyloxy]-3,3,7-trimethyl-2,3-dihydro-1H-indol-2-one]
pKd (LTD4 receptor): 6.52

Cc1ccc(OCc2ccc(OCc3ccc4ccccc4n3)cc2)c2cc(Cl)c(=O)[nH]c12 [Example 20, 3-Chloro-8-methyl-5-[4-(2-quinolinylmethoxy)benzyloxy]-1,2-dihydroquinolin-2-one]
inhibition at 100 µM (LTD4 receptor): 0%

Cc1ccc(OCc2cccc(OCc3ccc4ccccc4n3)c2)c2c1NC(=S)C2(C)C [Example 49, 4-[3-(2-quinolinylmethoxy)benzyloxy]-3,3,7-trimethyl-2,3-dihydro-1H-indol-2-thione]
pKd (LTD4 receptor): 4.40

Cc1ccc(OCc2cccc(OCc3ccc4ccccc4n3)c2)c2cc(Cl)c(=O)[nH]c12 [Example 4]
inhibition at 100 µM (LTD4 receptor): 0%

O=C1CSc2cc(NC(=O)c3ccc(OCc4ccc5ccccc5n4)cc3)ccc2N1 [Example 73]
inhibition at 10 µM (LTD4 receptor): 20%

O=C1CSc2cc(OC(=O)c3cccc(OCc4ccc5ccccc5n4)c3)ccc2N1 [Example 58, 7-[3-(2-Quinolinylmethoxy]benzoyloxy]-3,4-dihydro-2H-1,4-benzothiazin-3-one]
inhibition at 100 µM (LTD4 receptor): 0%

Cc1ccc(OCc2ccc(OCc3ccc4ccccc4n3)cc2)c2cc(-c3nn[nH]n3)c(=O)[nH]c12 [Example 48, 8-methyl-5-[4-(2-quinolinylmethoxy)benzyloxy]-3-(5-tetrazolyl)-1,2-dihydroquinolin-2-one]
pKd (LTD4 receptor): 6.52

Cc1ccc(OCc2ccc(OCc3ccc4ccccc4n3)cc2)c2cc(C(=O)O)c(=O)[nH]c12 [Example 52, 8-methyl-2-oxo-5-[4-(2-quinolinylmethoxy)benzyloxy]-1,2-dihydroquinoline-3-carboxylic acid]
pKd (LTD4 receptor): 6.52

Cc1ccc(OCc2ccc(OCc3ccc4ccccc4n3)cc2)c2cc(C#N)c(=O)[nH]c12 [Example 19, 3-Cyano-8-methyl-5-[4-(2-quinolinylmethoxy)benzyloxy]-1,2-dihydroquinolin-2-one]
inhibition at 100 µM (LTD4 receptor): 0%

N#Cc1cc2cc(OCc3cccc(OCc4ccc5ccccc5n4)c3)ccc2[nH]c1=O [Example 1, 3-cyano-6-[3-(2-quinolinylmethoxy)benzyloxy]-1,2-dihydroquinolin-2-one]
pKd (LTD4 receptor): 6.93

O=C1CSc2cc(OCc3ccc(OCc4ccc5ccccc5n4)cc3)ccc2N1 [Example 26, 7-[4-(2-Quinolinylmethoxy)benzyloxy]-3,4-dihydro-2H-1,4-benzothiazin-3-one]
pKd (LTD4 receptor): 3.26
